Literature values in patent publication US7511156B2, “Analogs of Salinosporamide A” (President and Fellows of Harvard College, priority 2004, dated 2009).
Residues, ends and D or L forms follow the SMILES beside them. *: point of attachment. Cbz = O=C(OCc1ccccc1)*

System: PC12 cells
Conditions: Tsubuki et al. 1993

## CC(C)C[C@@H](C=O)NC(=O)[C@H](CC(C)C)NC(=O)[C@H](CC(C)C)NC(=O)OCc1ccccc1 [benzyloxycarbonyl (Z)-Leu-Leu-leucinal] (Cbz-Leu-Leu-Leu-aldehyde)
  optimal concentration inducing neurite outgrowth: 30 nM
